Legend:
GAPDH = experiment: qPCR of GAPDH (reference transcript); assay type: cell-based; details: Rep 2; for avg. fold induction GAPDH / fold induction GAPDH: vs 24 hr cytoGFP (empty traffo)
DR5 = experiment: GFP immunoprecipitation: DR5 (FADD, caspase 8) recovered with GFP-tagged protein, Western blot; assay type: cell-based, Homo sapiens; details: for fraction of DR5 IP'ed: GFP IP
Procedure: 15 cm dishes were seeded with 4 million HCT116 cells and allowed to recover for 18 hr prior to transfection. Samples were then transfected for 24 hr with the GFP-tagged ER trafficked protein, cytosolic GFP, or empty vector. To harvest apoptotic and living cells for each sample, all media and washes were collected. Cells were scraped in 2 ml of cold PBS and combined with the media and washes. Samples were centrifuged to pellet cells, washed with 1 ml cold PBS, and flash frozen in liquid N2 prior to lysis.
The cell pellets were resuspended in 750 μl of 30 mM HEPES pH 7.2, 150 mM NaCl, 1% Triton X-100 with 1x Roche protease inhibitor cocktail (if used subsequently for caspase glo 8 assay) or with 5x Roche protease inhibitor cocktail (if used for immunoblotting). The cells were lysed by mechanical shearing through a 25G needle for 13–15 plunges followed by incubation on ice for 30 min. The lysate was centrifuged at 2000xg for 5 min to remove debris and then incubated with 30 μl of GFP-Trap magnetic agarose beads (Chromotek gtma-20) for 4 hr at 4°C. The beads were then washed with 750 μl of lysis buffer for 10 min at 4°C for three rounds.
For Western blots, samples were eluted by adding 35 μl of non-reducing SDS gel loading buffer (50 mM Tris-HCl (pH 6.8), 2% SDS, 0.1% bromophenol blue, 10% glycerol) and incubated for 10 min at 70°C. The beads were then magnetically removed from the eluted sample before adding DTT to a final concentration of 25 mM. The entire sample was loaded onto the gel and immunoblotted for DR5, caspase 8, and GFP, in that order.

HCT116 cells = experiment: Annexin V (and SytoxBlue) flow cytometry for apoptosis; assay type: cell-based, Homo sapiens
Outline: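 HCT116 cells transfected with the specified plasmid for 24 hr, trypsinized and allowed 30 min recovery at 37°C. Stained with Annexin V-AlexaFluor 647 (1:20) for 15 min at RT in the dark; apoptotic cell distribution determined by flow cytometry.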

[1] = test system: caspase 8 in HCT116 lysates; experiment: Caspase 8 activity (caspase glo 8) of cell lysates / IP inputs; assay type: cell-based, Homo sapiens; details: for average fold change relative to empty: HCT116, rep 1, average of 4 dilutions; for norm RLUs: normalized by lysate quant
Outline: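 HCT116 cells lysed in 30 mM HEPES pH 7.2, 150 mM NaCl, 1% Triton X-100 by needle shearing, 30 min on ice, cleared at 1000xg. Supernatant diluted 1:25-1:100 and incubated 45 min at RT with luminogenic caspase-8 substrate; luminescence read.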

RHO-GFP: GFP-tagged rhodopsin expressed from plasmid
Cq GAPDH (GAPDH; 3 hr, mean of 3 replicates): 19.7379 | 2^-(deltaCq) GAPDH (GAPDH; 3 hr, replicate 1): 0.8551 | Cq GAPDH (GAPDH; 3 hr, replicate 1): 19.9638 | Cq(sample) - avg Cq(GAPDH), GAPDH (GAPDH; 3 hr, replicate 1): 0.2259 | 2^-(deltaCq) GAPDH (GAPDH; 3 hr, replicate 2): 1.128 | Cq GAPDH (GAPDH; 3 hr, replicate 2): 19.5639 | Cq(sample) - avg Cq(GAPDH), GAPDH (GAPDH; 3 hr, replicate 2): -0.174 | 2^-(deltaCq) GAPDH (GAPDH; 3 hr, replicate 3): 1.0366 | Cq GAPDH (GAPDH; 3 hr, replicate 3): 19.686 | Cq(sample) - avg Cq(GAPDH), GAPDH (GAPDH; 3 hr, replicate 3): -0.05187 | avg. fold induction GAPDH (GAPDH; 3 hr, mean of 3 replicates): 1.004 | fold induction GAPDH (GAPDH; 3 hr, replicate 1): 0.8525 | fold induction GAPDH (GAPDH; 3 hr, replicate 2): 1.125 | fold induction GAPDH (GAPDH; 3 hr, replicate 3): 1.034 | Cq GAPDH (GAPDH; 7 hr, mean of 3 replicates): 19.658 | 2^-(deltaCq) GAPDH (GAPDH; 7 hr, replicate 1): 0.7732 | Cq GAPDH (GAPDH; 7 hr, replicate 1): 20.029 | Cq(sample) - avg Cq(GAPDH), GAPDH (GAPDH; 7 hr, replicate 1): 0.371 | 2^-(deltaCq) GAPDH (GAPDH; 7 hr, replicate 2): 1.046 | Cq GAPDH (GAPDH; 7 hr, replicate 2): 19.5931 | Cq(sample) - avg Cq(GAPDH), GAPDH (GAPDH; 7 hr, replicate 2): -0.06483 | 2^-(deltaCq) GAPDH (GAPDH; 7 hr, replicate 3): 1.236 | Cq GAPDH (GAPDH; 7 hr, replicate 3): 19.3518 | Cq(sample) - avg Cq(GAPDH), GAPDH (GAPDH; 7 hr, replicate 3): -0.3062 | avg. fold induction GAPDH (GAPDH; 7 hr, mean of 3 replicates): 1.016 | fold induction GAPDH (GAPDH; 7 hr, replicate 1): 0.7709 | fold induction GAPDH (GAPDH; 7 hr, replicate 2): 1.043 | fold induction GAPDH (GAPDH; 7 hr, replicate 3): 1.233 | Cq GAPDH (GAPDH; 24 hr, mean of 3 replicates): 19.018 | 2^-(deltaCq) GAPDH (GAPDH; 24 hr, replicate 1): 0.8063 | Cq GAPDH (GAPDH; 24 hr, replicate 1): 19.3286 | Cq(sample) - avg Cq(GAPDH), GAPDH (GAPDH; 24 hr, replicate 1): 0.3107 | 2^-(deltaCq) GAPDH (GAPDH; 24 hr, replicate 2): 1.066 | Cq GAPDH (GAPDH; 24 hr, replicate 2): 18.9252 | Cq(sample) - avg Cq(GAPDH), GAPDH (GAPDH; 24 hr, replicate 2): -0.09277 | 2^-(deltaCq) GAPDH (GAPDH; 24 hr, replicate 3): 1.163 | Cq GAPDH (GAPDH; 24 hr, replicate 3): 18.8001 | Cq(sample) - avg Cq(GAPDH), GAPDH (GAPDH; 24 hr, replicate 3): -0.2179 | avg. fold induction GAPDH (GAPDH; 24 hr, mean of 3 replicates): 1.009 | fold induction GAPDH (GAPDH; 24 hr, replicate 1): 0.8039 | fold induction GAPDH (GAPDH; 24 hr, replicate 2): 1.063 | fold induction GAPDH (GAPDH; 24 hr, replicate 3): 1.16 | fraction of DR5 IP'ed (DR5; sheet 2018-04-13 rep 2): 0.05356 | fraction of DR5 IP'ed (DR5; sheet 2018-09-20 rep 1): 0.05459 | fraction IP'ed (DR5; Rep 1 (second series)): 0.05356 | fraction IP'ed (DR5; Rep 2 (second series)): 0.05459 | % IP'ed (DR5; average of all replicates): 5.408% | fraction IP'ed, average (DR5; average of all replicates): 0.05408 | Mean ± SEM (fraction IP'ed) (DR5; unpaired t test sheet, GFP n=5, MPZ n=3, INS n=2, RHO n=2): 0.05408 ± 0.0005162, n=2 | 95% confidence interval (difference between means) (DR5; vs. GFP, fraction IP'ed): 0.01226 to 0.07547 | Difference between means (DR5; vs. GFP, fraction IP'ed, ± SEM): 0.04386 ± 0.01229 | PARP cleavage and annexin V staining (HCT116 cells; HCT116, transfected 24 hr, Nt or DR5 siRNA): induced PARP cleavage and annexin V staining in a DR5-dependent manner | Mean ± SEM (siDR5), Annexin V (HCT116 cells; siDR5, N=3): 19 ± 0.033 N=3 | 95% confidence interval of difference, Annexin V (HCT116 cells; siDR5 vs. siNt): -22 to -5.1 | Difference between means, Annexin V (HCT116 cells; siDR5 vs. siNt): -13 ± 3.0 | Mean ± SEM (siNt), Annexin V (HCT116 cells; siNt, N=3): 33 ± 3.0 N=3 | average fold change relative to empty ([1]; siDR5): 1.375 fold change | average fold change relative to empty ([1]; siNT): 3.026 fold change | fold change in caspase 8 activity relative to GFP ([1]; input lysates GFP vs INS vs RHO, Rep1): 3.178 fold | fold change in caspase 8 activity relative to GFP ([1]; input lysates GFP vs INS vs RHO, Rep2): 3.026 fold | avg fold change in caspase 8 activity relative to GFP ([1]; input lysates GFP vs INS vs RHO, average of Rep1 and Rep2): 3.102 fold | Mean ± SEM (lysate inputs) ([1]; lysate inputs, relative to GFP, n=2): 3.102 ± 0.07579, n=2 | average fold change relative to GFP ([1]; rep 2, average of 3 dilutions): 3.178 fold change | norm RLUs ([1]; rep 2, dilution 0.025): 2013.77 RLUs | norm RLUs ([1]; rep 2, dilution 0.05): 4641.15 RLUs | norm RLUs ([1]; rep 2, dilution 0.1): 10576.5 RLUs | 95% confidence interval of difference (lysate inputs) ([1]; vs. GFP): 1.776 to 2.428 | Difference between means (lysate inputs) ([1]; vs. GFP): 2.102 ± 0.07579
